For assay [1], the system named is guinea pig platelets. As to the kind of experiment: Ex vivo/vitro inhibition of platelet aggregation after administration via the gastric route in guinea pigs. The conditions noted are these: Cavia porcellus, Platelet, 10 mg/kg, fasted guinea pigs. On the set-up: species or system guinea pig (Dunkin-Hartley). The procedure, abridged:
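Compounds dosed by the gastric route to Dunkin-Hartley guinea pigs, with random allocation of treatments. Blood then drawn and platelets freshly separated and tested as in the in vitro aggregation study. Inhibition measured for intensity and duration of action; IC50 derived from per-concentration inhibition.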

Assay [2] has as its system human platelets. The assay is described as follows: In vitro inhibition of collagen-induced platelet aggregation, human platelets (PRP). It counts as cell-based. Particulars: 0.05 h, collagen 5 μg/ml, 3 minutes of contact at 37° C., read-out: IC50 (M) in vitro, Man. The procedure:
A study of the inhibitory activity of the compounds of formula I on platelet aggregation was carried out in vitro, i.e. by direct contact of solutions of variable concentrations of the compounds with platelets freshly separated from a sample of total blood, taken under standardized conditions, from laboratory animals (guinea pigs) and from healthy human subjects who have not received any substances or drugs that might interfere with blood clotting. The anti-platelet-aggregating activity was also studied ex vivo/vitro, i.e. after administration of the substances claimed to guinea pigs to measure the intensity and duration of the anti-aggregating action induced by the fraction of the test product absorbed and circulating in the blood.
Venous blood is taken from a group of ten healthy human subjects of the same age, by puncture into a vein of the fold of the elbow and is collected in a glass tube containing aqueous 0.129 M sodium citrate solution (1 volume of citrate solution per 9 volumes of blood). Each tube is then centrifuged a first time at 20° C. and 100 g for 15 minutes in order to obtain the platelet-rich plasma (PRP); after removing this PRP, the tube is again centrifuged at 2000 g for 15 minutes in order this time to remove the platelet-poor plasma (PPP).
For each identified sample of PRP, the platelets are counted using a Coulter ZM counter. Each sample is then used to study the variation in inhibition of the platelet aggregation triggered by the addition of a Chromo-par Reagent collagen glucose solution from Coultronics (used at a concentration of 5 μg/ml) as a function of the addition of increasing concentrations of each compound in a range covering the interval 10^-8 M→10^-5 M, (example of concentrations: 10^-8 M, […], 6×10^-6 M, 4×10^-6 M, 2×10^-6 M, 10^-6 M, […], 10^-5 M). Beforehand, for each compound, an aqueous 10^-3 M solution is prepared. A control test intended to check the possible effect of the solvents (reference value) on the platelet aggregation is introduced into each measurement series, and is measured after 3 minutes of contact at 37° C. with agitation.
From the percentages of inhibition of the platelet aggregation measured for each concentration of each compound, the 50% inhibitory concentration (IC50) is calculated.

Assay [3] concerns guinea pig platelets. As to the kind of experiment: In vitro inhibition of collagen-induced platelet aggregation, guinea pig platelets (PRP). Particulars: Cavia porcellus, Platelet, 0.05 h, collagen 1 μg/ml, 3 minutes of contact at 37° C. It counts as cell-based, guinea pig (male Dunkin-Hartley). The procedure, abridged: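 Citrated PRP from male Dunkin-Hartley guinea pigs, adjusted to 200,000–400,000 platelets/mm^3, with PPP as reference. Aggregation induced by collagen (1 μg/ml) and followed by optical aggregometry; inhibition measured after 3 min compound contact at 37° C with stirring.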

Setting [4] is: 1 h before blood sampling, read-out: % of g.r. inhibition guinea pig ex vivo, d = 10 mg/kg, 1 h.
Where [5] appears, read: 2 h before blood sampling, read-out: % of g.r. inhibition guinea pig ex vivo, d = 10 mg/kg, 2 h.

Where a name gives a salt, the structure may show the parent alone. Read-outs that look alike come from different tables or passages of the source.

With `O=C(CNC(=O)C(CCC1CCNCC1)CCC1CCNCC1)NCC(NS(=O)(=O)c1cccc2ccccc12)C(=O)O` (stereo not shown) [Example 31, 2-[(1-Naphthylsulphonyl)amino]-3-{[2-({4-(4-piperidyl)-2-[2-(4-piperidyl)ethyl]butanoyl}amino)acetyl]amino}propanoic Acid Dihydrochloride], the inhibition at 10 mg/kg in assay [1] (setting [4]) and in assay [1] (setting [5]) was -81% each time. In addition, the IC50 – broadly, the point on the concentration scale where inhibition reaches its midpoint – in assay [2] amounted to 5.8e-07 M; in assay [3], 44 nM.

For `O=C(CNC(=O)C(CCC1CCNCC1)CCC1CCNCC1)NCC(NS(=O)(=O)c1cccs1)C(=O)O` (stereo not shown) [Example 33, 2-[(2-Thienylsulphonyl)amino]-3-{[2-({4-(4-piperidyl)-2-[2-(4-piperidyl)ethyl]butanoyl}amino)acetyl]amino}propanoic Acid Dihydrochloride], the inhibition at 10 mg/kg was -14% in assay [1] (setting [4]) and -5% in assay [1] (setting [5]). In addition, the values for the concentration for half-maximal inhibition (IC50) in assay [2] and in assay [3] were 4.9e-07 M and 710 nM, respectively.

On to `O=C(CNC(=O)C(CCC1CCNCC1)CCC1CCNCC1)NCC(NS(=O)(=O)c1ccc(Cl)cc1)C(=O)O` (stereo not shown) [Example 34, 2-([(4-Chlorophenyl)sulphonyl]amino)-3-{[2-({4-(4-piperidyl)-2-[2-(4-piperidyl)ethyl]butanoyl}amino)acetyl]amino}propanoic Acid Dihydrochloride], for which the inhibition at 10 mg/kg in assay [1] (setting [4]) is -19%; in assay [1] (setting [5]) it was -8%. Moreover, the figures for the IC50 in assay [2] and in assay [3] were 8.9e-07 M and 500 nM, respectively.

For the compound `O=C(CNC(=O)C(CCC1CCNCC1)CCC1CCNCC1)NCC(NS(=O)(=O)c1ccc(F)cc1)C(=O)O` (stereo not shown) [Example 35, 2-{[(4-Fluorophenyl)sulphonyl]amino}-3-{[2-({4-(4-piperidyl)-2-[2-(4-piperidyl)ethyl]butanoyl}amino)acetyl]amino}propanoic Acid Dihydrochloride], the inhibition at 10 mg/kg in assay [1] (setting [4]) is -5%; in assay [1] (setting [5]), 0%. Moreover, the half-inhibitory concentration (IC50) in assay [2] is 1.3e-08 M; in assay [3] it was 18 nM.

Take `COc1ccc2cc(S(=O)(=O)N[C@@H](CNC(=O)CNC(=O)C(CCC3CCNCC3)CCC3CCNCC3)C(=O)O)ccc2c1` [Example 36, (2S)-2-{[(6-Methoxy-2-naphthyl)sulphonyl]amino}-3-{[2-({4-(4-piperidyl)-2-[2-(4-piperidyl)ethyl]butanoyl}amino)acetyl]amino}propanoic Acid Dihydrochloride]: the inhibition at 10 mg/kg is -63% in assay [1] (setting [4]) and -69% in assay [1] (setting [5]). For the same compound, the half-inhibitory concentration (IC50) amounted to 7.2e-08 M in assay [2] and 41 nM in assay [3].

As for `Cc1cc(C)c(S(=O)(=O)NC(CNC(=O)CNC(=O)C(CCC2CCNCC2)CCC2CCNCC2)C(=O)O)c(C)c1` (stereo not shown) [Example 37, 2-[(Mesitylsulphonyl)amino]-3-{[2-({4-(4-piperidyl)-2-[2-(4-piperidyl)ethyl]butanoyl}amino)acetyl]amino}propanoic Acid Dihydrochloride], the inhibition at 10 mg/kg is -9% in assay [1] (setting [4]) and -16% in assay [1] (setting [5]). The results for the IC50 in assay [2] and in assay [3] were 1.3e-07 M and 140 nM, respectively.

In the case of `CN(C)c1cccc2c(S(=O)(=O)NC(CNC(=O)CNC(=O)C(CCC3CCNCC3)CCC3CCNCC3)C(=O)O)cccc12` (stereo not shown) [Example 49, 2-({[5-(Dimethylamino)-1-naphthyl)sulphonyl}amino)-3-{[2-({4-(4-piperidyl)-2-[2-(4-piperidyl)ethyl]butanoyl}amino)acetyl]amino}propanoic Acid Trihydrochloride], the inhibition at 10 mg/kg in assay [1] (setting [4]) was -69%; in assay [1] (setting [5]) it was -68%. Moreover, the IC50 in assay [2] was found to be 5.6e-08 M; in assay [3], 49 nM.

In the case of `COc1ccc(S(=O)(=O)N[C@@H](CNC(=O)CNC(=O)C(CCC2CCNCC2)CCC2CCNCC2)C(=O)O)c2ccccc12` [Example 52, 2-([(4-Methoxy-1-naphthyl)sulphonyl]amino)-3-{[2-({4-(4-piperidyl)-2-[2-(4-piperidyl)ethyl]butanoyl}amino)acetyl]amino}propanoic Acid Dihydrochloride], the inhibition at 10 mg/kg in assay [1] (setting [4]) was -58%; in assay [1] (setting [5]), -30%. The concentration for half-maximal inhibition (IC50) stood at 9.3e-08 M in assay [2] and 35 nM in assay [3].

On to `COc1cc2ccc(S(=O)(=O)N[C@@H](CNC(=O)CNC(=O)C(CCC3CCNCC3)CCC3CCNCC3)C(=O)O)cc2cc1OC` [Example 53, 2-{[(6,7-Dimethoxy-2-naphthyl)sulphonyl]amino}-3-{[2-({4-(4-piperidyl)-2-[2-(4-piperidyl)ethyl]butanoyl}amino)acetyl]amino}propanoic Acid Dihydrochloride], for which the inhibition at 10 mg/kg is -73% in assay [1] (setting [4]) and -9% in assay [1] (setting [5]). Moreover, the values for the IC50 in assay [2] and in assay [3] were 7.3e-08 M and 37 nM, respectively.

As for `O=C(CNC(=O)C(CCC1CCNCC1)CCC1CCNCC1)NC[C@H](NS(=O)(=O)c1cc2ccccc2s1)C(=O)O` [Example 59, 2-[(1-Benzothiophen-2-ylsulphonyl)amino]-3-{[2-({4-(4-piperidyl)-2-[2-(4-piperidyl)ethyl]butanoyl}amino)acetyl]amino}propanoic Acid Dihydrochloride], the inhibition at 10 mg/kg is -66% in assay [1] (setting [4]) and -34% in assay [1] (setting [5]). Also, the IC50 in assay [2] came to 1.5e-07 M; in assay [3], 66 nM.

With `O=C(CNC(=O)C(CCC1CCNCC1)CCC1CCNCC1)NCC(NS(=O)(=O)c1ccc(Cl)c2ccccc12)C(=O)O` (stereo not shown) [Example 63, 2-{[(4-Chloro-1-naphthyl)sulphonyl]amino}-3-{[2-({4-(4-piperidyl)-2-[2-(4-piperidyl)ethyl]butanoyl}amino)acetyl]amino}propanoic Acid Dihydrochloride], the inhibition at 10 mg/kg was -69% in assay [1] (setting [4]) and -50% in assay [1] (setting [5]). Also, the values for the IC50 in assay [2] and in assay [3] were 1e-06 M and 53 nM, respectively.

Turning to `O=C(CNC(=O)C(CCC1CCNCC1)CCC1CCNCC1)NCC(NS(=O)(=O)c1ccc(-c2ccccc2)s1)C(=O)O` (stereo not shown) [Example 71, 2-{[(5-Phenyl-2-thienyl))sulphonyl]amino}-3-{[2-({4-(4-piperidyl)-2-[2-(4-piperidyl)ethyl]butanoyl}amino)acetyl]amino}propanoic Acid Dihydrochloride], the inhibition at 10 mg/kg in assay [1] (setting [4]) is -72%; in assay [1] (setting [5]), -70%. Moreover, the figures for the IC50 in assay [2] and in assay [3] were 1.9e-07 M and 63 nM, respectively.

With `O=C(CCNC(=O)C(CCC1CCNCC1)CCC1CCNCC1)NCC(NS(=O)(=O)c1ccc2ccccc2c1)C(=O)O` (stereo not shown) [Example 78, 2-[(2-Naphthylsulphonyl)amino]-3-{[3-({4-(4-piperidyl)-2-[2-(4-piperidyl)ethyl]butanoyl}amino)propanoyl]amino}propanoic Acid Dihydrochloride], the figures for the inhibition at 10 mg/kg in assay [1] (setting [4]) and in assay [1] (setting [5]) were -65% and -73%, respectively. The results for the IC50 in assay [2] and in assay [3] were 1e-07 M and 46 nM, respectively.

(Values after patent US6333338A, “Bispiperidines as antithrombotic agents” (Laboratoire L. Lafon, priority 1998, dated 2001).)
